Our source for the Kd and Selectivity values is patent US20250152585A1, “PHARMACEUTICAL COMPOUND” (Duke Street Bio Limited, priority 2022, published 2025).

The target in assay [1] is T1, N-terminally FLAG-tagged PARP2 (amino acids 1-583) (Homo sapiens, UniProt Q9UGN5).
T1 construct: N-terminally FLAG-tagged PARP2 (amino acids 1-583)
Briefly: PARP2 probe displacement HTRF assay. The class given is binding. The note with it: binned Kd. The protocol: Data analysis was performed identical as for PARP1.
(In general: TR-FRET usually uses a lanthanide donor and a delayed reading to cut background.)

Assay [2] addresses full length N-terminally FLAG-tagged PARP1 (Homo sapiens, UniProt P09874). Briefly: PARP1 probe displacement HTRF assay. The note with it: for Selectivity: PARP1 over PARP2, ratio Kd (PARP2)/Kd (PARP1), probe displacement HTRF; for pKd: binned Kd, PARP1 probe displacement HTRF.

pKd: −log10 of the molar value. Like-named read-outs stand apart in the source and are kept apart here.

full length N-terminally FLAG-tagged PARP1, sequence (P09874 whole entry): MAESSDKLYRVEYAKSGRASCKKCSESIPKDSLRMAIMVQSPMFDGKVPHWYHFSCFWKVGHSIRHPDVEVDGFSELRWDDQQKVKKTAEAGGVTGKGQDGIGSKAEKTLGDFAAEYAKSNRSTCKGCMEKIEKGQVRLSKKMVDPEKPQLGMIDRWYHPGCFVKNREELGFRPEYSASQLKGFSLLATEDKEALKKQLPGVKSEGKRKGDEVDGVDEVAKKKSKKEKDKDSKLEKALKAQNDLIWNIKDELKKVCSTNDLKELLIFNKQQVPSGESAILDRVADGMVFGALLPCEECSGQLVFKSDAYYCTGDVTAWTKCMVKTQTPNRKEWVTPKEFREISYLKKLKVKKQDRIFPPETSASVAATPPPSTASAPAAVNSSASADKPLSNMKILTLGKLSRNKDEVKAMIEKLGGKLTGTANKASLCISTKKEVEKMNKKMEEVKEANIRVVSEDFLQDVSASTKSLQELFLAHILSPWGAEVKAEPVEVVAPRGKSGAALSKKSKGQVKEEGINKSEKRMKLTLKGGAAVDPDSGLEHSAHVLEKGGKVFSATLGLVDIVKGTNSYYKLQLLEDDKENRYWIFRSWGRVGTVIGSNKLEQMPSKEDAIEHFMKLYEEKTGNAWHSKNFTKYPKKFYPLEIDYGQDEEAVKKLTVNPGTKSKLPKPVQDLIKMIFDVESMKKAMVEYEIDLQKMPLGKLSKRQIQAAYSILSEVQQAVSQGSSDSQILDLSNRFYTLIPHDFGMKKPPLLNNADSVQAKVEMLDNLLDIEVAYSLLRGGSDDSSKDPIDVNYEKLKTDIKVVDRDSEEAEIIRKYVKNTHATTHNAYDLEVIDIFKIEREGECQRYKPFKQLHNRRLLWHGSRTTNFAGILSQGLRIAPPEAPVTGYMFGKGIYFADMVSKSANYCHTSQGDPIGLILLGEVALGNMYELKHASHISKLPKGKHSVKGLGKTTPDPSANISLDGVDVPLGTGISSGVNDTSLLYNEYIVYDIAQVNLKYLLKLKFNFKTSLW
T1 sequence (Q9UGN5 whole entry, the tested form may be a part): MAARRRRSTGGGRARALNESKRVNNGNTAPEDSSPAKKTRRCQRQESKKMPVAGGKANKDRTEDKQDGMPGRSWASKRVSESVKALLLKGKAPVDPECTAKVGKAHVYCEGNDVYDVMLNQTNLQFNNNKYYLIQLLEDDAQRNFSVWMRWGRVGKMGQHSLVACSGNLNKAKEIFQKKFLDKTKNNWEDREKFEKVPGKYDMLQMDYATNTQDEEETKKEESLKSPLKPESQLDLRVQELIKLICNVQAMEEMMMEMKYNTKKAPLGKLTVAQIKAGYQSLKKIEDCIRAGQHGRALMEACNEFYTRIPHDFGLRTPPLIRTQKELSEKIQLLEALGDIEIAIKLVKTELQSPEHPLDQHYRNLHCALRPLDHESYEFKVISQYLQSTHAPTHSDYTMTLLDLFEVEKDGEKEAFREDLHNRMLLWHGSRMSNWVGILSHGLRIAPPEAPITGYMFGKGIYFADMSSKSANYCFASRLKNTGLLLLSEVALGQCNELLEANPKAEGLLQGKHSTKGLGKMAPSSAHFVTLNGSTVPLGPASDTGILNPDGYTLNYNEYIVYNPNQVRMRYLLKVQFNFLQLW

In the case of `CCN1CCCc2c1nc(C13CC(C1)N(C1CCN(c4ccc(C(=O)NC)nc4)CC1)C3)[nH]c2=O` [Compound 383], the pKd in assay [1] (probe displacement HTRF) is 6.00 to 7.00.

`CNC(=O)c1ccc(N2CCC(N3CCC(c4nc5ccncc5c(=O)[nH]4)C3)CC2)cn1` (single isomer, unassigned) [Compound 81a]: the pKd in assay [1] (PARP2 probe displacement HTRF) was < 5.00; in assay [2] (read-out: PARP1 HTRF), 6.00 to 7.00. Moreover, the Selectivity result in assay [2] is on record as “+ (+ indicates a value of 10 to less than 50)”.

For the molecule `O=c1[nH]c(C2CCN(C3CCN(c4ccc(-c5ncc[nH]5)cc4)CC3)C2)nc2ccccc12` (single isomer, unassigned) [Compound 76a], the values for the pKd in assay [1] (PARP2 probe displacement HTRF) and in assay [2] (read-out: PARP1 HTRF) were 6.00 to 7.00 and 7.00 to 8.00, respectively. For the same molecule, the Selectivity result in assay [2] was “− (− indicates a value of less than 10)”.

Regarding `CNC(=O)c1ccc(N2CCC(N3CCC(c4nc5ccncc5c(=O)[nH]4)C3)CC2)cn1` (single isomer, unassigned) [Compound 81b], the pKd in assay [1] (PARP2 probe displacement HTRF) is < 5.00; in assay [2] (read-out: PARP1 HTRF), 7.00 to 8.00. Besides, the Selectivity entry in assay [2] is reported as “+++ (+++ indicate a value of at least 100)”.

On to `N#Cc1ccc(N2CCC(N3CCCC(c4nc5ccccc5c(=O)[nH]4)C3)CC2)cc1` (single isomer, unassigned) [Compound 79b], for which the pKd in assay [1] (PARP2 probe displacement HTRF) is 6.00 to 7.00; in assay [2] (read-out: PARP1 HTRF), 7.00 to 8.00. For the same molecule, in assay [2], the Selectivity result is “+ (+ indicates a value of 10 to less than 50)”.

Consider `CNC(=O)c1ccc(N2CCC(N3CCCC(c4nc5ccccc5c(=O)[nH]4)C3)CC2)cc1` (single isomer, unassigned) [Compound 82b], for which the pKd in assay [1] (PARP2 probe displacement HTRF) was < 5.00; in assay [2] (read-out: PARP1 HTRF), 7.00 to 8.00. Also, in assay [2], the Selectivity entry is “++ (++ indicates a value of 50 to less than 100)”.

In the case of `CNC(=O)c1ccc(N2CCC(N3CCCC(c4nc5cccnc5c(=O)[nH]4)C3)CC2)cn1` (single isomer, unassigned) [Compound 89a], the pKd in assay [1] (PARP2 probe displacement HTRF) and in assay [2] (read-out: PARP1 HTRF) was < 5.00 in each case. Besides, in assay [2], the Selectivity result is recorded as “− (− indicates a value of less than 10)”.

Turning to `CNC(=O)c1ccc(N2CCC(N3CCC(c4nc5onc(C(F)(F)F)c5c(=O)[nH]4)C3)CC2)cn1` (racemic) [Compound 176rac], the pKd in assay [1] (PARP2 probe displacement HTRF) was < 5.00; in assay [2] (read-out: PARP1 HTRF), 6.00 to 7.00. For the same molecule, the Selectivity entry in assay [2] is “+ (+ indicates a value of 10 to less than 50)”.

Take `CNC(=O)c1ccc(N2CCC(N3CCC(c4cc5ccc(C(F)(F)F)cc5c(=O)[nH]4)C3)CC2)cn1` (racemic) [Compound 177rac]: the pKd in assay [1] (PARP2 probe displacement HTRF) is < 5.00; in assay [2] (read-out: PARP1 HTRF), > 8.00. In assay [2], the Selectivity entry is “+++ (+++ indicate a value of at least 100)”.

For `CNC(=O)c1ccc(N2CCC(N3CCC(c4nc5cnccc5c(=O)[nH]4)C3)CC2)cn1` (single isomer, unassigned) [Compound 84b], the pKd in assay [1] (PARP2 probe displacement HTRF) is < 5.00; in assay [2] (read-out: PARP1 HTRF), 7.00 to 8.00. In assay [2], the Selectivity result is “++ (++ indicates a value of 50 to less than 100)”.

For `CNC(=O)c1ccc(N2CCC(N3CCCC(c4nc5ccccc5c(=O)[nH]4)C3)CC2)nc1` (single isomer, unassigned) [Compound 83b], the pKd in assay [1] (PARP2 probe displacement HTRF) was < 5.00; in assay [2] (read-out: PARP1 HTRF), 6.00 to 7.00. The Selectivity entry in assay [2] is “+ (+ indicates a value of 10 to less than 50)”.

For `CNC(=O)c1ccc(N2CCC(N3CCC(c4nc5cccc(Cl)c5c(=O)[nH]4)C3)CC2)cn1` (single isomer, unassigned) [Compound 85a], the values for the pKd in assay [1] (PARP2 probe displacement HTRF) and in assay [2] (read-out: PARP1 HTRF) were 6.00 to 7.00 and 7.00 to 8.00, respectively. In assay [2], the Selectivity result is listed as “+ (+ indicates a value of 10 to less than 50)”.

Regarding `CNC(=O)c1ccc(N2CCC(N3CCC(c4nc5c(C(F)(F)F)cccc5c(=O)[nH]4)C3)CC2)cn1` (single isomer, unassigned) [Compound 178a], the pKd in assay [1] (PARP2 probe displacement HTRF) is 5.00 to 6.00; in assay [2] (read-out: PARP1 HTRF), 6.00 to 7.00. For the same molecule, the Selectivity entry in assay [2] is “− (− indicates a value of less than 10)”.

Consider `CNC(=O)c1ccc(N2CCC(N3CCC4CC4(c4nc5ccccc5c(=O)[nH]4)C3)CC2)cn1` (single isomer, unassigned) [Compound 90a], for which the pKd in assay [1] (PARP2 probe displacement HTRF) was < 5.00; in assay [2] (read-out: PARP1 HTRF), 6.00 to 7.00. For the same molecule, in assay [2], the Selectivity entry was “+ (+ indicates a value of 10 to less than 50)”.

In the case of `CNC(=O)c1ccc(N2CCC(N3CCC(c4nc5cccnc5c(=O)[nH]4)C3)CC2)cn1` (single isomer, unassigned) [Compound 77a], the pKd in assay [1] (PARP2 probe displacement HTRF) is < 5.00; in assay [2] (read-out: PARP1 HTRF), 6.00 to 7.00. For the same molecule, the Selectivity entry in assay [2] is listed as “+ (+ indicates a value of 10 to less than 50)”.

On to `CNC(=O)c1ccc(N2CCC(N3CCCC(c4nc5cccc(F)c5c(=O)[nH]4)C3)CC2)cn1` (single isomer, unassigned) [Compound 88b], for which the pKd in assay [1] (PARP2 probe displacement HTRF) was 5.00 to 6.00; in assay [2] (read-out: PARP1 HTRF), > 8.00. For the same molecule, the Selectivity result in assay [2] is on record as “+++ (+++ indicate a value of at least 100)”.

Take `CNC(=O)c1ccc(N2CCC(N3CCCC(c4nc5cccc(F)c5c(=O)[nH]4)C3)CC2)cn1` (single isomer, unassigned) [Compound 88a]: the pKd in assay [1] (PARP2 probe displacement HTRF) and in assay [2] (read-out: PARP1 HTRF) was 6.00 to 7.00 in each case. The Selectivity result in assay [2] is recorded as “− (− indicates a value of less than 10)”.

As for `CNC(=O)c1ccc(N2CCC(N3CCC(c4nc5c(C(F)(F)F)cccc5c(=O)[nH]4)C3)CC2)cn1` (single isomer, unassigned) [Compound 178b], the values for the pKd in assay [1] (PARP2 probe displacement HTRF) and in assay [2] (read-out: PARP1 HTRF) were 5.00 to 6.00 and > 8.00, respectively. In assay [2], the Selectivity result is “+++ (+++ indicate a value of at least 100)”.

For the molecule `CNC(=O)c1ccc(N2CCC(N3CCC(c4nc5ccccc5c(=O)[nH]4)C3)CC2)cc1` (single isomer, unassigned) [Compound 80b], the pKd in assay [1] (PARP2 probe displacement HTRF) and in assay [2] (read-out: PARP1 HTRF) was 6.00 to 7.00 in each case. In assay [2], the Selectivity entry is listed as “− (− indicates a value of less than 10)”.

With `CNC(=O)c1ccc(N2CCC(N3CCC(c4nc5ccccc5c(=O)[nH]4)C3)CC2)cc1` (single isomer, unassigned) [Compound 80a], the pKd in assay [1] (PARP2 probe displacement HTRF) was 6.00 to 7.00; in assay [2] (read-out: PARP1 HTRF), > 8.00. For the same molecule, in assay [2], the Selectivity entry was “+++ (+++ indicate a value of at least 100)”.

For the molecule `CNC(=O)c1ccc(N2CCC(N3CCCC(c4nc5ccccc5c(=O)[nH]4)C3)CC2)nc1` (single isomer, unassigned) [Compound 83a], the values for the pKd in assay [1] (PARP2 probe displacement HTRF) and in assay [2] (read-out: PARP1 HTRF) were 5.00 to 6.00 and 6.00 to 7.00, respectively. In addition, in assay [2], the Selectivity entry is recorded as “− (− indicates a value of less than 10)”.

For the molecule `CNC(=O)c1ccc(N2CCC(N3CCC(c4nc5cccnc5c(=O)[nH]4)C3)CC2)cn1` (single isomer, unassigned) [Compound 77b], the pKd was < 5.00 in assay [1] (PARP2 probe displacement HTRF) and 7.00 to 8.00 in assay [2] (read-out: PARP1 HTRF). For the same molecule, the Selectivity result in assay [2] is reported as “+++ (+++ indicate a value of at least 100)”.

As to `CNC(=O)c1ccc(N2CCC(N3CCCC(c4nc5ccc(F)cc5c(=O)[nH]4)C3)CC2)cn1` (single isomer, unassigned) [Compound 78a], the pKd in assay [1] (PARP2 probe displacement HTRF) is 5.00 to 6.00; in assay [2] (read-out: PARP1 HTRF) it was > 8.00. Also, in assay [2], the Selectivity entry was “+++ (+++ indicate a value of at least 100)”.

Consider `CNC(=O)c1ccc(N2CCC(CN3CCC(c4ncc(C(F)(F)F)c(=O)[nH]4)CC3)CC2)cn1` [Compound 75], for which the figures for the pKd in assay [1] (PARP2 probe displacement HTRF) and in assay [2] (PARP1 HTRF) were < 5.00 and 5.00 to 6.00, respectively. For the same molecule, the Selectivity entry in assay [2] was “− (− indicates a value of less than 10)”.

For the molecule `CNC(=O)c1ccc(N2CCC(N3CCC(c4nc5cnccc5c(=O)[nH]4)C3)CC2)cn1` (single isomer, unassigned) [Compound 84a], the pKd in assay [1] (PARP2 probe displacement HTRF) is < 5.00; in assay [2] (read-out: PARP1 HTRF) it was 5.00 to 6.00. In addition, in assay [2], the Selectivity entry is given as “− (− indicates a value of less than 10)”.

Turning to `O=c1[nH]c(C2CCN(C3CCN(c4ccc(-c5ncc[nH]5)cc4)CC3)C2)nc2ccccc12` (single isomer, unassigned) [Compound 76b], the pKd is > 8.00 in assay [1] (PARP2 probe displacement HTRF) and 7.00 to 8.00 in assay [2] (read-out: PARP1 HTRF). Also, the Selectivity result in assay [2] is listed as “− (− indicates a value of less than 10)”.

For the molecule `CNC(=O)c1ccc(N2CCC(N3CCCC(c4nc5cccnc5c(=O)[nH]4)C3)CC2)cn1` (single isomer, unassigned) [Compound 89b], the pKd was < 5.00 in assay [1] (PARP2 probe displacement HTRF) and 6.00 to 7.00 in assay [2] (read-out: PARP1 HTRF). In addition, the Selectivity entry in assay [2] is “+ (+ indicates a value of 10 to less than 50)”.

Turning to `CNC(=O)c1ccc(N2CCC(N3CCCC(c4nc5ccccc5c(=O)[nH]4)C3)CC2)cc1` (single isomer, unassigned) [Compound 82a], the results for the pKd in assay [1] (PARP2 probe displacement HTRF) and in assay [2] (read-out: PARP1 HTRF) were 6.00 to 7.00 and 7.00 to 8.00, respectively. Further, the Selectivity entry in assay [2] was “− (− indicates a value of less than 10)”.

Regarding `N#Cc1ccc(N2CCC(N3CCCC(c4nc5ccccc5c(=O)[nH]4)C3)CC2)cc1` (single isomer, unassigned) [Compound 79a], the results for the pKd in assay [1] (PARP2 probe displacement HTRF) and in assay [2] (read-out: PARP1 HTRF) were 6.00 to 7.00 and 7.00 to 8.00, respectively. Further, the Selectivity entry in assay [2] was “+ (+ indicates a value of 10 to less than 50)”.

`CNC(=O)c1ccc(N2CCC(N3CCCC(c4nc5ccc(F)cc5c(=O)[nH]4)C3)CC2)cn1` (single isomer, unassigned) [Compound 78b]: the pKd is 6.00 to 7.00 in assay [1] (PARP2 probe displacement HTRF) and 7.00 to 8.00 in assay [2] (read-out: PARP1 HTRF). In addition, in assay [2], the Selectivity entry is reported as “+ (+ indicates a value of 10 to less than 50)”.

Take `CNC(=O)c1ccc(N2CCC(N3CCC(c4nc5cc(Cl)ccc5c(=O)[nH]4)C3)CC2)cn1` (single isomer, unassigned) [Compound 87a]: the pKd in assay [1] (PARP2 probe displacement HTRF) is 5.00 to 6.00; in assay [2] (read-out: PARP1 HTRF) it was 6.00 to 7.00. The Selectivity entry in assay [2] was “+ (+ indicates a value of 10 to less than 50)”.

For the molecule `CNC(=O)c1ccc(N2CCC(N3CCC(c4cc5c(F)cncc5c(=O)[nH]4)C3)CC2)c(F)n1` (single isomer, unassigned) [Compound 343b, 6-fluoro-5-(4-(3-(5-fluoro-1-oxo-1,2-dihydro-2,7-naphthyridin-3-yl)pyrrolidin-1-yl)piperidin-1-yl)-N-methylpicolinamide], the pKd in assay [1] (probe displacement HTRF) is 5.00 to 6.00.
